Measurements taken from US20210278408A1, “METHODS OF TREATMENT OF CANCER WITH SUBSTITUTED PYRROLE AND PYRAZOLE COMPOUNDS AND DIAGNOSIS OF CANCERS SUSCEPTIBLE TO TREATMENT WITH SUBSTITUTED PYRROLE AND PYRAZOLE COMPOUNDS” (Bantam Pharmaceutical, LLC, priority 2018, published 2021).
Read-outs that look alike come from different tables or passages of the source.

System: 407 cancer cell lines
Assay: Cell viability of cancer cell lines (IC50), CellTiter-Glo Viability Assay, 96 h
Type: cell-based
Settings: Homo sapiens, read-out: Absolute IC50
Procedure: Viability was determined by using the 50% inhibitory concentration (IC50) as determined with the CellTiter-Glo® Viability Assay (Promega).
Experiments were initiated by first thawing and equilibrating the CellTiter-Glo® Buffer to room temperature. The lyophilized CellTiter-Glo® Substrate was also equilibrated to room temperature. The lyophilized substrate was reconstituted with the CellTiter-Glo® buffer to form the CellTiter-Glo® Reagent.
Cells were harvested during the logarithmic growth period, counted, and the cell concentration adjusted to 4.44×10^4 cells/mL using culture medium.
Cells were allowed to grow overnight and the following day, the TO reading was obtained by adding 10 μL culture medium to each well of Plate A. The plate was allowed to equilibrate at room temperature for thirty minutes, after which 50 μL CellTiter-Glo® reagent was added to each well. The contents were mixed for 5 min on an orbital shaker to induce cell lysis. Plates were incubated for 20 minutes to stabilize the luminescent signal and the TO luminescence recorded.
Test plate B was incubated for 96 h in the humidified incubator at 37° C. with 5% CO2.
Following the incubation, the plate was equilibrated at room temperature for thirty minutes. CellTiter-Glo® (50 μL) was added to each well of the plate and contents mixed for five minutes on an orbital shaker to induce cell lysis. The luminescent signal was allowed to stabilize at room temperature for 20 minutes and the luminescence recorded.
IC50 (EC50) was calculated using a dose-response curve, fitted using a nonlinear regression model with a sigmoidal dose response. Survival rate was calculated using the formula:
The Surviving rate (%)=(LumTest article−LumMedium control)/(LumNon-treated−LumMedium control)×100%.
Absolute IC50 (EC50) was calculated according to the dose-response curve generated by the statistical software (GraphPad Prism 5.0).

In the case of `Cc1nn(-c2nc(-c3ccc(C(F)(F)F)cc3)c(SC(C)C)s2)c(C(=O)O)c1-c1cccc(F)c1` [Compound A197, 4-(3-fluorophenyl)-1-(5-(isopropylthio)-4-(4-(trifluoromethyl)phenyl)thiazol-2-yl)-3-methyl-1H-pyrazole-5-carboxylic acid], the IC50 (NCI-H292, 96 h, NCI-H292 cells, 96 h) is reported as over 30 µM, the IC50 (NCI-H358, 96 h, NCI-H358 cells, 96 h) is reported as 0.38 µM and the IC50 (NCI-H441, 96 h, NCI-H441 cells, 96 h) is reported as over 30 µM. The IC50 (NCI-H446, 96 h, NCI-H446 cells, 96 h) was over 30 µM, the IC50 (NCI-H460, 96 h, NCI-H460 cells, 96 h) was over 30 µM and the IC50 (NCI-H508, 96 h, NCI-H508 cells, 96 h) was 1.33 µM. It also gave an IC50 (NCI-H520, 96 h, NCI-H520 cells, 96 h) of 0.3 µM, an IC50 (NCI-H522, 96 h, NCI-H522 cells, 96 h) of over 30 µM and an IC50 (NCI-H526, 96 h, NCI-H526 cells, 96 h) of over 30 µM. It also gave an IC50 (NCI-H596, NCI-H596) of over 30 µM, an IC50 (NCI-H661, 96 h, NCI-H661 cells, 96 h) of over 30 µM and an IC50 (NCI-H716, 96 h, NCI-H716 cells, 96 h) of 1.57 µM. For the same molecule, the IC50 (NCI-H727, 96 h, NCI-H727 cells, 96 h) was over 30 µM, the IC50 (NCI-H747, 96 h, NCI-H747 cells, 96 h) was over 30 µM and the IC50 (NCI-H929, NCI-H929) was 19 µM. It also gave an IC50 (NCI-H1048, 96 h, NCI-H1048 cells, 96 h) of over 30 µM, an IC50 (NCI-H1155, 96 h, NCI-H1155 cells, 96 h) of 0.46 µM and an IC50 (NCI-H1299, 96 h, NCI-H1299 cells, 96 h) of 0.78 µM. For the same molecule, the IC50 (NCI-H1373, NCI-H1373) was 0.8 µM, the IC50 (NCI-H1395, NCI-H1395) was 0.37 µM and the IC50 (NCI-H1437, 96 h, NCI-H1437 cells, 96 h) was 0.31 µM. The IC50 (NCI-H1563, NCI-H1563) was over 30 µM, the IC50 (NCI-H1573, 96 h, NCI-H1573 cells, 96 h) was 0.46 µM and the IC50 (NCI-H1581, 96 h, NCI-H1581 cells, 96 h) was over 30 µM. The IC50 (NCI-H1648, 96 h, NCI-H1648 cells, 96 h) was over 30 µM, the IC50 (NCI-H1650, NCI-H1650) was over 30 µM and the IC50 (NCI-H1651, 96 h, NCI-H1651 cells, 96 h) was 0.86 µM. It also gave an IC50 (NCI-H1666, 96 h, NCI-H1666 cells, 96 h) of over 30 µM, an IC50 (NCI-H1703, 96 h, NCI-H1703 cells, 96 h) of 0.36 µM and an IC50 (NCI-H1792, 96 h, NCI-H1792 cells, 96 h) of 1.27 µM. It also gave an IC50 (NCI-H1838, 96 h, NCI-H1838 cells, 96 h) of over 30 µM, an IC50 (NCI-H1975, 96 h, NCI-H1975 cells, 96 h) of over 30 µM and an IC50 (NCI-H1993, 96 h, NCI-H1993 cells, 96 h) of 1.2 µM. It also gave an IC50 (NCI-H2009, NCI-H2009) of 4.84 µM, an IC50 (NCI-H2052, NCI-H2052) of over 30 µM and an IC50 (NCI-H2087, 96 h, NCI-H2087 cells, 96 h) of over 30 µM. It also gave an IC50 (NCI-H2122, 96 h, NCI-H2122 cells, 96 h) of 0.27 µM, an IC50 (NCI-H2170, 96 h, NCI-H2170 cells, 96 h) of 0.5 µM and an IC50 (NCI-H2228, 96 h, NCI-H2228 cells, 96 h) of 0.61 µM. It also gave an IC50 (NCI-H2452, NCI-H2452) of over 30 µM, an IC50 (NCI-H3122, 96 h, NCI-H3122 cells, 96 h) of 0.39 µM and an IC50 (NCI-N87, 96 h) of 1.47 µM. The IC50 (NUGC-3, 96 h, NUGC-3 cells, 96 h) was 22.9 µM, the IC50 (NUGC-4, 96 h, NUGC-4 cells, 96 h) was 1.53 µM and the IC50 (OCI-AML-3, OCI-AML3) was over 30 µM. For the same molecule, the IC50 (OCI-LY19, OCI-LY-19) was 0.95 µM, the IC50 (OCI-Ly7, 96 h, OCI-LY7 cells, 96 h) was 0.68 µM and the IC50 (OE19, 96 h) was over 30 µM. For the same molecule, the IC50 (OPM-2, OPM2) was 0.37 µM, the IC50 (OS-RC-2, OS-RC-2) was over 30 µM and the IC50 (OVCAR-3, 96 h, OVCAR-3 cells, 96 h) was over 30 µM. The IC50 (OVCAR-8, 96 h, OVCAR-8 cells, 96 h) was 1.02 µM, the IC50 (PANC-1, PANC-1) was 2.7 µM and the IC50 (PC-3, PC-3) was over 30 µM. It also gave an IC50 (PC-9, 96 h, PC-9 cells, 96 h) of 1.11 µM, an IC50 (PLC-PRF-5, PLC/PRF/5) of 1.24 µM and an IC50 (Pfeiffer, 96 h, Pfeiffer cells, 96 h) of 0.18 µM. It also gave an IC50 (REH) of 0.31 µM, an IC50 (RKO) of 23.6 µM and an IC50 (RL95-2, 96 h, RL95-2 cells, 96 h) of 0.42 µM. It also gave an IC50 (RPMI-2650, 96 h, RPMI-2650 cells, 96 h) of 0.81 µM, an IC50 (RPMI-8226, 96 h, RPMI 8226 cells, 96 h) of 0.75 µM and an IC50 (RS4-11, RS4;11) of 0.69 µM. It also gave an IC50 (RT112/84, RT112/84) of 12.5 µM, an IC50 (RT-4, 96 h, RT4 cells, 96 h) of 0.83 µM and an IC50 (Raji, 96 h, Raji cells, 96 h) of 0.45 µM. The IC50 (Ramos, 96 h, Ramos cells, 96 h) was 0.76 µM, the IC50 (SAOS-2, Saos-2) was 0.82 µM and the IC50 (SCC-4, 96 h) was over 30 µM. It also gave an IC50 (SCC-9, 96 h, SCC-9 cells, 96 h) of over 30 µM, an IC50 (SCC-15, 96 h, SCC-15 cells, 96 h) of over 30 µM and an IC50 (SCC-25, 96 h, SCC-25 cells, 96 h) of over 30 µM. For the same molecule, the IC50 (SF-126, 96 h, SF-126 cells, 96 h) was over 30 µM, the IC50 (SF-268, 96 h, SF268 cells, 96 h) was over 30 µM and the IC50 (SH-SY5Y) was over 30 µM. It also gave an IC50 (SJSA-1, SJSA-1) of over 30 µM, an IC50 (SK-BR-3, SK-BR-3) of 29.6 µM and an IC50 (SK-CO-1, 96 h, SK-CO-1 cells, 96 h) of 1.12 µM. It also gave an IC50 (SK-HEP1, 96 h, SK-HEP-1 cells, 96 h) of over 30 µM, an IC50 (SK-LU-1, 96 h, SK-LU-1 cells, 96 h) of 1.05 µM and an IC50 (SK-MEL-5, 96 h) of over 30 µM. The IC50 (SK-MEL-28, 96 h) was over 30 µM, the IC50 (SK-MES-1, SK-MES-1) was 1.21 µM and the IC50 (SK-N-FI, 96 h, SK-N-FI cells, 96 h) was 1.19 µM. For the same molecule, the IC50 (SK-N-SH) was over 30 µM, the IC50 (SK-NEP-1, 96 h, SK-NEP-1 cells, 96 h) was 1.06 µM and the IC50 (SK-OV-3, 96 h, SK-OV-3 cells, 96 h) was over 30 µM. It also gave an IC50 (SK-UT-1, 96 h, SK-UT-1 cells, 96 h) of over 30 µM, an IC50 (SNU1, 96 h, SNU-1 cells, 96 h) of 10.7 µM and an IC50 (SNU-5, 96 h) of 1.83 µM. For the same molecule, the IC50 (SNU-354, SNU-354) was over 30 µM, the IC50 (SNU-387, SNU-387) was over 30 µM and the IC50 (SNU-398, SNU-398) was 0.22 µM. The IC50 (SNU-423, 96 h, SNU-423 cells, 96 h) was over 30 µM, the IC50 (SNU-449, SNU-449) was 24.3 µM and the IC50 (SNU-475, 96 h, SNU-475 cells, 96 h) was 2.51 µM. For the same molecule, the IC50 (SNU-638, 96 h, SNU-638 cells, 96 h) was over 30 µM, the IC50 (ST486, 96 h, ST486 cells, 96 h) was 0.22 µM and the IC50 (SU-DHL-1, SU-DHL-1) was 0.33 µM. For the same molecule, the IC50 (SU-DHL-4, SU-DHL-4) was 1.07 µM, the IC50 (SU-DHL-5, 96 h, SU-DHL-5 cells, 96 h) was 0.42 µM and the IC50 (SU-DHL-6, 96 h, SU-DHL-6 cells, 96 h) was 1.05 µM. The IC50 (SU-DHL-8, SU-DHL-8) was 0.75 µM, the IC50 (SUM-159-PT, SUM159PT) was 17.8 µM and the IC50 (SUP-B15, SUP-B15) was 1.22 µM. The IC50 (SW13, SW-13) was 0.35 µM, the IC50 (SW48, 96 h, SW48 cells, 96 h) was over 30 µM and the IC50 (SW480, SW480) was over 30 µM. It also gave an IC50 (SW626, 96 h, SW626 cells, 96 h) of over 30 µM, an IC50 (SW684, 96 h, SW684 cells, 96 h) of over 30 µM and an IC50 (SW756, 96 h, SW756 cells, 96 h) of 28.4 µM. The IC50 (SW780, 96 h, SW780 cells, 96 h) was 22.6 µM, the IC50 (SW837, 96 h, SW837 cells, 96 h) was over 30 µM and the IC50 (SW948, 96 h, SW948 cells, 96 h) was over 30 µM. For the same molecule, the IC50 (SW982, 96 h, SW982 cells, 96 h) was over 30 µM, the IC50 (SW 1116, 96 h, SW1116 cells, 96 h) was over 30 µM and the IC50 (SW1417, 96 h, SW1417 cells, 96 h) was over 30 µM. The IC50 (SW1990, SW1990) was 18.1 µM, the IC50 (SiHa, 96 h, SiHa cells, 96 h) was over 30 µM and the IC50 (T47D) was over 30 µM. The IC50 (T84, T84) was over 30 µM, the IC50 (T-24, 96 h, T24 cells, 96 h) was over 30 µM and the IC50 (TE-1, TE-1) was 9.77 µM. The IC50 (TF-1, TF-1) was over 30 µM and the IC50 (THP-1, 96 h, THP-1 cells, 96 h) was 0.21 µM.
